Literature values, collected in patent US7056538B2, “Disinfectant solution based on sodium hypochlorite, and process for preparing it” (Aziende Chimiche Riunite Angelini Francesco A.C.R.A.F. …, priority 2001, dated 2006).

Settings: 25° C.

OCl [hypochlorous acid]
dissociation constant pKa: 7.49
